Among the test systems are SW-620; DU-145; MDA-MB-435; NCI-H226; UACC-257; RXF 393; SK-MEL-2; MDA-MB-231; COLO 205; SNB-19; UACC-62; KM12; SK-MEL-28; NCI-H23; ACHN; K562; SK-OV-3; SNB-75; A498.
Test in all cases: DTP human tumour cell line panel, 48 h

This note sets out measurements from ChEMBL document CHEMBL1201862, “PubChem BioAssay data set” (2004).

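A five-concentration, 48-hour dose response in 96-well plates underlies each endpoint, interpolated linearly between surrounding concentrations. Here, GI50 denotes the concentration required for 50% inhibition of growth.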 Calls of active or inactive are those of the source. Cut-off read from the data, not from the text of the source: active = GI50 up to about 1.1 µM and inactive = higher. Some results are limits rather than exact numbers.

For the compound `CC1C(=O)O[B-]2(c3ccccc3)Oc3ccccc3C=[N+]12` (stereo not given), the GI50 in the assay with SW-620, with DU-145, with MDA-MB-435, with NCI-H226, with UACC-257 and with RXF 393 was > 100 µM (inactive) each time. In addition, the GI50 with SK-MEL-2, in the assay with MDA-MB-231, in the assay with COLO 205, with SNB-19, in the assay on UACC-62 and in the assay on KM12 was > 100 µM (inactive) in each case. The GI50 (as a rule, the concentration at which growth is held to half of that of the control) with SK-MEL-28 is > 100 µM (inactive); with NCI-H23, > 100 µM (inactive); with ACHN, > 100 µM (inactive); in the assay on K562, > 100 µM (inactive); in the assay on SK-OV-3 it was > 100 µM (inactive); in the assay with SNB-75, 72.1 µM (inactive). In the assay on A498, the GI50 is > 100 µM (inactive).
With `Clc1ccccc1/C=C/c1ccnc2ccccc12`, the GI50 with SW-620 is 18.4 µM (inactive); in the assay with DU-145 it was 15.7 µM (inactive); in the assay with MDA-MB-435 it was 15.8 µM (inactive); in the assay on NCI-H226, 16.8 µM (inactive); in the assay with UACC-257, 15.1 µM (inactive); with RXF 393 it was 16.5 µM (inactive). In addition, the GI50 was 16.6 µM (inactive) in the assay on SK-MEL-2; 22.9 µM (inactive) in the assay with MDA-MB-231; 13.8 µM (inactive) in the assay with COLO 205; 16.8 µM (inactive) in the assay on SNB-19; 15.2 µM (inactive) in the assay with UACC-62; 17.4 µM (inactive) with KM12. Further, the GI50 was 19.6 µM (inactive) with SK-MEL-28; 14.1 µM (inactive) in the assay with NCI-H23; 16.5 µM (inactive) with ACHN; 15.9 µM (inactive) in the assay on K562; 18.5 µM (inactive) in the assay with SK-OV-3; 15.6 µM (inactive) in the assay on SNB-75. Also, the GI50 with A498 is 18.8 µM (inactive).
Take `N=C(N)SCc1ccc(Cl)cc1Cl.O=[N+]([O-])c1c(O)c(Cl)cc(Cl)c1Cl`: the GI50 with SW-620 is 15.2 µM (inactive); with DU-145, 13.5 µM (inactive); with MDA-MB-435, 6.22 µM (inactive); in the assay on NCI-H226 it was 20.5 µM (inactive); with UACC-257 it was 7.73 µM (inactive); in the assay on RXF 393, 12.8 µM (inactive). The GI50 is 12.7 µM (inactive) with SK-MEL-2; 10.7 µM (inactive) in the assay on MDA-MB-231; 14.2 µM (inactive) in the assay with COLO 205; 19.4 µM (inactive) in the assay on SNB-19; 14.4 µM (inactive) in the assay on UACC-62; 13.7 µM (inactive) with KM12. Moreover, the GI50 in the assay with SK-MEL-28 was 28.9 µM (inactive); in the assay with NCI-H23, 13.4 µM (inactive); in the assay with ACHN it was 10.7 µM (inactive); with K562 it was 4.35 µM (inactive); in the assay on SK-OV-3, 17.3 µM (inactive); with SNB-75 it was 15.1 µM (inactive). Also, the GI50 with A498 was 13.3 µM (inactive).
As to `O=C1CC(=O)NC(NNS(=O)(=O)c2ccc(Cl)cc2)=N1`, the GI50 in the assay on SW-620, in the assay with DU-145, with MDA-MB-435, in the assay on NCI-H226, with UACC-257 and with RXF 393 was > 100 µM (inactive) each time. For the same compound, the GI50 with SK-MEL-2, in the assay with MDA-MB-231, in the assay with COLO 205, in the assay on SNB-19, in the assay on UACC-62 and in the assay on KM12 was > 100 µM (inactive) each time. In addition, the GI50 with SK-MEL-28 is > 100 µM (inactive); in the assay on NCI-H23, > 100 µM (inactive); in the assay with ACHN, > 100 µM (inactive); with K562, > 100 µM (inactive); in the assay on SK-OV-3, 58.5 µM (inactive); in the assay with SNB-75 it was > 100 µM (inactive). Also, the GI50 with A498 was > 100 µM (inactive).
With `O=C(NC(N1CCN(c2cc3c(cc2F)c(=O)c(C(=O)O)cn3C2CC2)CC1)(C(F)(F)F)C(F)(F)F)c1ccccc1`, the GI50 in the assay with SW-620 is 40.5 µM (inactive); with DU-145 it was 62.1 µM (inactive); with MDA-MB-435 it was 34.1 µM (inactive); with NCI-H226, 34.1 µM (inactive); in the assay on UACC-257 it was 26.8 µM (inactive); in the assay on RXF 393, 46.1 µM (inactive). Further, the GI50 in the assay with SK-MEL-2 was 34.9 µM (inactive); with MDA-MB-231 it was 22.2 µM (inactive); with COLO 205, 19.1 µM (inactive); in the assay with SNB-19 it was 33.9 µM (inactive); in the assay on UACC-62, 33.3 µM (inactive); in the assay on KM12, 29.2 µM (inactive). For the same compound, the GI50 in the assay with SK-MEL-28 is 55.8 µM (inactive); in the assay on NCI-H23 it was 25.9 µM (inactive); with ACHN, 35.8 µM (inactive); with K562 it was 39.4 µM (inactive); in the assay on SK-OV-3, 34.1 µM (inactive); in the assay on SNB-75 it was 33.6 µM (inactive). Besides, in the assay on A498, the GI50 was 30.4 µM (inactive).
`COC(=O)[C@H](Cc1ccccc1)NC(=O)N(CCC#N)CCCCN(CCC#N)C(=O)N[C@@H](Cc1ccccc1)C(=O)OC`: the GI50 is > 100 µM (inactive) in the assay with SW-620; > 100 µM (inactive) in the assay on DU-145; > 100 µM (inactive) with MDA-MB-435; > 100 µM (inactive) with NCI-H226; > 100 µM (inactive) in the assay on UACC-257; > 58.1 µM (inactive) with RXF 393. The GI50 with SK-MEL-2, in the assay on MDA-MB-231, with COLO 205, with SNB-19, in the assay on UACC-62 and in the assay with KM12 was > 100 µM (inactive) in each case. Also, the GI50 was > 100 µM (inactive) with SK-MEL-28; > 100 µM (inactive) in the assay on NCI-H23; > 100 µM (inactive) in the assay on ACHN; > 100 µM (inactive) in the assay with K562; > 100 µM (inactive) with SK-OV-3; > 27.2 µM (inactive) with SNB-75. Moreover, the GI50 in the assay on A498 is > 100 µM (inactive).
As for `CN(C)CCn1c(=O)c2ccc3c4c(nn3CCN(C)C)c3cc(N)ccc3n(c1=O)c24`, the GI50 in the assay on SW-620 was < 0.0148 µM (active); with DU-145 it was < 0.0167 µM (active); in the assay with MDA-MB-435 it was < 0.0209 µM (active); in the assay on NCI-H226, 0.0791 µM (active); in the assay with UACC-257, 0.118 µM (active); in the assay on RXF 393, < 0.032 µM (active). In addition, the concentration for 50% growth inhibition (GI50) in the assay on SK-MEL-2 was < 0.0292 µM (active); in the assay with MDA-MB-231 it was < 0.0313 µM (active); in the assay with COLO 205, < 0.0239 µM (active); in the assay with SNB-19, < 0.0111 µM (active); in the assay with UACC-62, 0.0902 µM (active); in the assay with KM12 it was < 0.0196 µM (active). The concentration for 50% growth inhibition (GI50) in the assay on SK-MEL-28 was 0.0646 µM (active); in the assay on NCI-H23, < 0.01 µM (active); with ACHN it was < 0.0161 µM (active); in the assay with K562, < 0.0133 µM (active); with SK-OV-3, < 0.0211 µM (active); in the assay with SNB-75, < 0.01 µM (active). Also, the GI50 in the assay on A498 is 0.061 µM (active).
With `CC1=C[C@@H]2Cc3nc4cc(Cl)ccc4c(N)c3[C@H](C1)C2`, the GI50 with SW-620 was 11 µM (inactive); in the assay on DU-145, 12.9 µM (inactive); in the assay with MDA-MB-435, 10.9 µM (inactive); in the assay on NCI-H226, 8.38 µM (inactive); in the assay with UACC-257, 2.02 µM (inactive); in the assay on RXF 393, 5.42 µM (inactive). Besides, the GI50 was 14.7 µM (inactive) in the assay on SK-MEL-2; 11.6 µM (inactive) with MDA-MB-231; 1.48 µM (inactive) in the assay with COLO 205; 11.8 µM (inactive) in the assay with SNB-19; 14.6 µM (inactive) in the assay with UACC-62; 7.6 µM (inactive) in the assay on KM12. Besides, the GI50 with SK-MEL-28 was 12.3 µM (inactive); with NCI-H23 it was 8.22 µM (inactive); in the assay with ACHN, 10.6 µM (inactive); in the assay on K562, 2.71 µM (inactive); in the assay with SK-OV-3, 12 µM (inactive); in the assay with SNB-75 it was 4.97 µM (inactive). Also, in the assay on A498, the GI50 was 11.2 µM (inactive).
Regarding `COc1ccc(OC)c2c1C(=O)C(O)=C(Cl)C2=O`, the GI50 in the assay on SW-620, in the assay on DU-145, with MDA-MB-435, with NCI-H226, in the assay on UACC-257 and in the assay with RXF 393 was > 100 µM (inactive) throughout. The GI50 in the assay on SK-MEL-2, in the assay on MDA-MB-231, in the assay with COLO 205, in the assay with SNB-19, with UACC-62 and with KM12 was > 100 µM (inactive) throughout. For the same compound, the GI50 in the assay with SK-MEL-28, in the assay on NCI-H23, in the assay with ACHN, with K562, with SK-OV-3 and in the assay with SNB-75 was > 100 µM (inactive) throughout. In the assay on A498, the GI50 is > 100 µM (inactive).
Take `N#Cc1c(O)c(/C=N/c2ccc(Cl)cc2)c(=O)n2c1[nH]c1ccccc12`: the GI50 in the assay with SW-620, with DU-145, with MDA-MB-435, with NCI-H226, in the assay on UACC-257 and in the assay on RXF 393 was > 100 µM (inactive) throughout. Besides, the GI50 in the assay on SK-MEL-2, in the assay with MDA-MB-231, with COLO 205, with SNB-19, with UACC-62 and in the assay with KM12 was > 100 µM (inactive) throughout. Also, the GI50 with SK-MEL-28, in the assay on NCI-H23, with ACHN, in the assay with K562, in the assay on SK-OV-3 and in the assay on SNB-75 was > 100 µM (inactive) each time. In the assay with A498, the GI50 was > 100 µM (inactive).
